Here are results for four compounds from ChEMBL document CHEMBL1143726, “Indole alkaloids produced by a marine fungus isolate of Penicillium janthinellum Biourge” (2007).

Calls of active or inactive are those of the source. No cut-off for these calls is given here.

One assay concerns C1 41. Nature of the assay: Cytotoxicity against mouse JB6 C1 41 cells up to 200 uM by MTS assay. The assay is classed as functional, cell-based.
Another assay relates to HL-60. The assay can be described thus: Induction of apoptosis in human HL60 cells at 100 uM after 24 hrs by flow cytometry relative to control. The assay is classed as functional. On the technique in general: A flow cytometer gives signals particle by particle.
Assay [1] is described as follows: Inhibition of EGF-induced malignant transformation of mouse JB6 C1 41 cells in soft agar. In kind it is functional.

Regarding `CC(C)=CCc1cc2[nH]c3c(c2cc1CC=C(C)C)C[C@@H]1CC[C@@]2(O)C4=CC(=O)[C@@H]5O[C@@]4(CC[C@]2(C)[C@@]31C)OC5(C)C`, in the assay with C1 41, the result was inactive.

For `CC1(C)C=C2c3cc4[nH]c5c(c4cc3C[C@@H]2C(C)(C)O1)C[C@@H]1CC[C@@]2(O)C3=CC(=O)[C@@H]4O[C@@]3(CC[C@]2(C)[C@@]51C)OC4(C)C` [SHEARININE A], the Activity in the assay with HL-60 is reported as 10%. Further, in the assay with C1 41, the outcome was inactive.

`CC1(C)C=C2c3cc4[nH]c5c(c4cc3[C@@H](O)[C@@H]2C(C)(C)O1)C[C@@H]1CC[C@@]2(O)C3=CC(=O)[C@@H]4O[C@@]3(CC[C@]2(C)[C@@]51C)OC4(C)C` [SHEARININE D] returned an Activity in the assay with HL-60 of 39%. For the same compound, the outcome in the assay with C1 41 was inactive.

As to `CC1(C)C=C2c3cc4[nH]c5c(c4cc3[C@H](O)[C@@H]2C(C)(C)O1)C[C@@H]1CC[C@@]2(O)C3=CC(=O)[C@@H]4O[C@@]3(CC[C@]2(C)[C@@]51C)OC4(C)C` [SHEARININE E], the INCC50 in assay [1] amounted to 13 µM. The compound also had an Activity in the assay with HL-60 of 34%. Also, the outcome in the assay with C1 41 was inactive.
